Assay results taken from patent US7417124B2, “Antibodies specific for phosphorylation sites and screening methods using the same antibodies” (Zeria Pharmaceutical Co., Ltd., priority 2003, dated 2008).

Test system: phosphorylation in the linker regions of Smad proteins
Experiment: Smad linker region phosphorylation in TGF-β-treated myofibroblasts, immunoprecipitation and immunoblotting with phosphorylation-specific antibodies
Format: cell-based
Settings: myofibroblasts from rat liver, compounds 30 minutes before 200 pM TGF-β, FIG. 3
Procedure: The phosphorylation of Smad2 and Smad3 was examined by western blotting using antibodies against Smad2 and Smad3 which were site-specifically phosphorylated after the immunoprecipitation with anti-Smad2 antibody and anti-Smad3 antibody.
Myofibroblasts (MFB 2×10^6 cells/100 mm dish) from rat liver were cultured in DMEM medium (containing 5% fetal bovine serum) for several days and further cultured with 200 pM TGF-β (R&D Systems) for 30 minutes under the serum-free conditions. The cells were homogenized with RIPA buffer (10 mM Tris-HCl, pH 7.8/1% NP40/0.15M NaCl/1 mM EDTA/10 μg/ml aprotinin), and the resultant lysate was centrifuged at 15,000×g. The supernatant was incubated with Smad-specific antibodies and protein G-sepharose (Amersham Bioscience) to obtain immunoprecipitate. After the incubation, part of the precipitate was subjected to SDS-polyacrylamide gel electrophoresis, the obtained gel was transferred onto a PVDF membrane, and immunoblotting was performed using the antibodies specific for phosphorylation of the linker regions and C-terminal regions in Smad2 and Smad3. The detection was carried out by a chemiluminescence technique using HRP-labeled secondary antibody/anti-IgG, IgH antibody (Amersham Bioscience). […] The detected bands were quantified using an imaging analyzer.

For `C[S+]([O-])c1ccc(-c2nc(-c3ccncc3)c(-c3ccc(F)cc3)[nH]2)cc1` (stereo not shown) [SB203580], the “phosphorylation in the linker regions of Smad proteins” value was “inhibited”.
